Experimental findings from patent publication US7579359B2, “1-alkoxy 1H-imidazo ring systems and methods” (3M Innovative Properties Company, priority 2004, dated 2009) are described below.

One may read the melting point as the temperature of the solid-liquid transition. Compound `CCc1nc2c(N)nc3ccccc3c2n1OC(C)C` [Example 5, 2-Ethyl-1-isopropoxy-1H-imidazo[4,5-c]quinolin-4-amine] gave a melting point of 242 to 243 °C. Take `Cc1nc2c(N)nc3ccccc3c2n1OCc1ccccc1[N+](=O)[O-]` [Example 29, 2-Methyl-1-[(2-nitrobenzyl)oxy]-1H-imidazo[4,5-c]quinolin-4-amine]: the melting point lay in the range of 215 to 217 °C. For `COn1c(-c2ccccc2)nc2c(N)nc3ccccc3c21` [Example 10, 1-Methoxy-2-phenyl-1H-imidazo[4,5-c]quinolin-4-amine], the melting point was 241 to 243 °C. `Cc1nc2c(N)nc3ccccc3c2n1OC(C)C` [Example 6, 1-Isopropoxy-2-methyl-1H-imidazo[4,5-c]quinolin-4-amine] yielded a melting point of 243 °C. The result for `CCCCc1nc2c(N)nc3ccccc3c2n1OC` [Example 27, 2-Butyl-1-methoxy-1H-imidazo[4,5-c]quinolin-4-amine] reads 197 to 199 °C.

`CCCc1nc2c(N)nc3ccccc3c2n1OCc1ccccc1` [Example 2, 1-Benzyloxy-2-propyl-1H-imidazo[4,5-c]quinolin-4-amine] registered a melting point of 164 to 166 °C.

For `CC(C)On1c(CO)nc2c(N)nc3ccccc3c21` [Example 19], the melting point lay within 204 to 206 °C. The compound `CCCc1nc2c(N)nc3ccccc3c2n1OCC` [Example 3, 1-Ethoxy-2-propyl-1H-imidazo[4,5-c]quinolin-4-amine] showed a melting point of 198 to 199 °C.

Regarding `Nc1nc2ccccc2c2c1nc(-c1ccccc1)n2OCc1ccccc1` [Example 16, 1-(Benzyloxy)-2-phenyl-1H-imidazo[4,5-c]quinolin-4-amine], the melting point was in the range of 177 to 179 °C. The compound `CCc1nc2c(N)nc3ccccc3c2n1OC` [Example 4, 2-Ethyl-1-methoxy-1H-imidazo[4,5-c]quinolin-4-amine] yielded a melting point of 216 to 217 °C.

Compound `Cc1nc2c(N)nc3ccccc3c2n1OCCOc1ccccc1` [Example 31, 2-Methyl-1-(2-phenoxyethoxy)-1H-imidazo[4,5-c]quinolin-4-amine] displayed a melting point of 237 to 239 °C.

Consider `COn1c(C2CCCCC2)nc2c(N)nc3ccccc3c21` [Example 13, 2-Cyclohexyl-1-methoxy-1H-imidazo[4,5-c]quinolin-4-amine], for which the melting point is 220 to 222 °C. The figure for `CC(C)On1cnc2c(N)nc3ccccc3c21` [Example 23, 1-Isopropoxy-1H-imidazo[4,5-c]quinolin-4-amine] is 224 to 225 °C; for `CCOn1cnc2c(N)nc3ccccc3c21` [Example 20, 1-Ethoxy-1H-imidazo[4,5-c]quinolin-4-amine] it is 179 to 181 °C; for `Cc1nc2c(N)nc3ccccc3c2n1OC(C)(C)C` [Example 30, 1-tert-Butoxy-2-methyl-1H-imidazo[4,5-c]quinolin-4-amine] it is 255 to 257 °C.

Turning to `CCCc1nc2c(N)nc3ccccc3c2n1OCC(N)=O` [Example 33, 2-[(4-Amino-2-propyl-1H-imidazo[4,5-c]quinolin-1-yl)oxy]acetamide], the melting point was 192 to 194 °C.

Turning to `CCOn1c(C)nc2c(N)nc3ccccc3c21` [Example 9, 1-Ethoxy-2-methyl-1H-imidazo[4,5-c]quinolin-4-amine], the melting point lay within 219 to 221 °C. With `CC(C)On1c(C2CCCCC2)nc2c(N)nc3ccccc3c21` [Example 12, 2-Cyclohexyl-1-isopropoxy-1H-imidazo[4,5-c]quinolin-4-amine], the melting point was in the range of 175 to 178 °C. For `CCCCc1nc2c(N)nc3ccccc3c2n1OC(C)C` [Example 28, 2-Butyl-1-isopropoxy-1H-imidazo[4,5-c]quinolin-4-amine], the melting point fell in the range of 118 to 119 °C. `COn1c(C)nc2c(N)nc3ccccc3c21` [Example 7, 1-Methoxy-2-methyl-1H-imidazo[4,5-c]quinolin-4-amine] yielded a melting point of 237 to 238 °C. For the compound `CC(C)On1c(C(C)C)nc2c(N)nc3ccccc3c21` [Example 26, 1-Isopropoxy-2-isopropyl-1H-imidazo[4,5-c]quinolin-4-amine], the melting point lay in the range of 177 to 179 °C.

`CC(C)On1c(-c2ccccc2)nc2c(N)nc3ccccc3c21` [Example 11, 1-Isopropoxy-2-phenyl-1H-imidazo[4,5-c]quinolin-4-amine] registered a melting point of 188 to 191 °C.

In turn, `CCOCc1nc2c(N)nc3ccccc3c2n1OC(C)C` [Example 18, 2-(Ethoxymethyl)-1-isopropoxy-1H-imidazo[4,5-c]quinolin-4-amine] showed a melting point of 179 to 181 °C. Regarding `CCCc1nc2c(N)nc3ccccc3c2n1O` [Example 24, 4-Amino-2-propyl-1H-imidazo[4,5-c]quinolin-1-ol], the melting point was 232 to 235 °C. With `Cc1nc2c(N)nc3ccccc3c2n1OCC(C)C` [Example 8, 1-Isobutoxy-2-methyl-1H-imidazo[4,5-c]quinolin-4-amine], the melting point lay in the range of 215 to 216 °C.

As to `COn1c(C(C)(C)C)nc2c(N)nc3ccccc3c21` [Example 15, 2-Tert-butyl-1-methoxy-1H-imidazo[4,5-c]quinolin-4-amine], the melting point lay within 195 to 197 °C. With `CC(C)On1c(C(C)(C)C)nc2c(N)nc3ccccc3c21` [Example 14, 2-Tert-butyl-1-isopropoxy-1H-imidazo[4,5-c]quinolin-4-amine], the melting point lay within 187 to 189 °C. Take `COn1cnc2c(N)nc3ccccc3c21` [Example 22, 1-Methoxy-1H-imidazo[4,5-c]quinolin-4-amine]: the melting point was 238 to 240 °C. `COn1c(C(C)C)nc2c(N)nc3ccccc3c21` [Example 25, 2-Isopropyl-1-methoxy-1H-imidazo[4,5-c]quinolin-4-amine] gave a melting point of 217 to 219 °C. With `CCCc1nc2c(N)nc3ccccc3c2n1OC` [Example 1, 1-Methoxy-2-propyl-1H-imidazo[4,5-c]quinolin-4-amine], the melting point lay in the range of 210 to 211 °C.
